Series [1] has as its system Methylobacterium extorquens AM1. It is filed as cell-based. The method, then:
(§1) 1.6 Dodecane and α-Humulene Tolerance of M. extorquens AM1
M. extorquens AM1 precultures were cultured in test tubes with 5 ml methanol minimal medium (MM) for 48 h. The tolerance of M. extorquens AM1 towards 20% (v/v) dodecane was studied by growth comparison ( OD600) of cultures containing 15 ml MM and cultures with 12 ml MM and 3 ml dodecane. The cultures for the growth comparison with and without dodecane were inoculated from one preculture.

Series [2] has the same test system. Put plainly: α-humulene tolerance of M. extorquens AM1 (growth rate comparison, OD600). In kind it is cell-based. The following applies: FIG. 3. How it is done:
as §1
The α-humulene tolerance was tested in two ways: tolerance towards α-humulene added directly to the aqueous phase and tolerance towards α-humulene dissolved in the organic dodecane layer. For the first experiment, pure α-humulene dissolved in ethanol was added to 100 ml baffled shaker flasks containing 15 ml MM with end concentrations of α-humulene of 1000, 500, 250, 100, 50, 25, 10 and 5 mg/L. Corresponding quantities of ethanol were added to the MM as negative controls. The flasks with the different α-humulene concentrations and the corresponding negative controls were inoculated with a preculture without α-humulene to an OD600 of 0.1. The OD600 was recorded over 30 h.
For the second said experiment, pure α-humulene was dissolved in dodecane and solutions with 1000, 500, 100, 50 and 10 mg/L α-humulene prepared. Two cultures each with 12 ml MM and 3 ml dodecane for each α-humulene concentration were inoculated to an OD600 of 0.1 from a preculture of M. extorquens AM1 without dodecane. Cultures with dodecane without α-humulene were used as negative controls. OD600 was measured over 30 h.
Terpenes often have toxic effects on bacteria. The toxicity of α-humulene to M. extorquens was studied by growth analyses in the presence of different α-humulene concentrations. […]

Structures are written as SMILES.

Turning to `CCCCCCCCCCCC` [dodecane], in series [1], the “toxic effects or influence on growth” value was “without any toxic effects or influence on growth being observable”.
For the molecule `C/C1=C\CC/C(C)=C/CC(C)(C)/C=C/C1` [α-humulene], the “growth-inhibiting effect (growth rate μ compared with μmax without α-humulene)” value in series [2] (α-humulene dissolved directly in the aqueous phase, even at concentrations of 1 g/l) is “only minimal growth-inhibiting effects”. The “influence on growth (growth rate μ compared with μmax without α-humulene)” value in series [2] (α-humulene dissolved in the dodecane phase as second organic phase) is reported as “slightly lesser influence than in the aqueous phase”.

(Values after patent US20180105838A1, “PROCESS FOR DE NOVO MICROBIAL SYNTHESIS OF TERPENES” (BASF SE, priority 2015, published 2018).)
